Data set [1] can be described thus: physchem. To be noted: buffer, pH 7.4.
Data set [2] is described as follows: physchem.
Data set [3] in a line: AUC (0 to 24 hrs) in cynomolgus monkey at 3 mg/kg via oral gavage measured up to 24 hrs post dose by LC-MS/MS analysis. To be noted: in vivo. In kind it is ADME, organism-based, Macaca fascicularis. Also on record: time < 24 hr, dose 3 mg/kg, route oral.
Data set [4] is described as follows: Tmax in cynomolgus monkey at 3 mg/kg via oral gavage by LC-MS/MS analysis. Format: ADME, organism-based, Macaca fascicularis. As to conditions: in vivo.
Data set [5] can be described thus: Oral bioavailability in cynomolgus monkey at 3 mg/kg via gavage measured up to 24 hrs post dose by LC-MS/MS analysis. As to conditions: in vivo. In kind it is ADME, organism-based, Macaca fascicularis.
A short description of data set [6]: (§1) AUC (0 to 24 hrs) in Wistar Han rat at 1 mg/kg, iv via bolus dose measured up to 24 hrs post dose by LC-MS/MS analysis. Also on record: time < 24 hr, dose 1 mg/kg, route intravenous. Format: ADME, organism-based. To be noted: Wistar Han, in vivo.
Data set [7] in a line: Drug excretion in cynomolgus monkey urine assessed as compound recovered at 1 mg/kg, iv measured over 24 hrs by LC/MS analysis. In kind it is ADME, organism-based, Macaca fascicularis. To be noted: read-out: Drug recovery.
The nature of data set [8]: Volume of distribution at steady state in Wistar Han rat at 1 mg/kg, iv via bolus dose measured up to 24 hrs post dose by LC-MS/MS analysis. Format: ADME, organism-based. To be noted: in vivo, read-out: Vdss.
Data set [9] is described as follows: Volume of distribution at steady state in cynomolgus monkey at 1 mg/kg, iv via bolus dose measured up to 24 hrs post dose by LC-MS/MS analysis. In kind it is ADME, organism-based, Macaca fascicularis. As to conditions: in vivo, read-out: Vdss.
Data set [10] can be described thus: AUC (0 to 24 hrs) in cynomolgus monkey at 1 mg/kg, iv via bolus dose measured up to 24 hrs post dose by LC-MS/MS analysis. Format: ADME, organism-based, Macaca fascicularis. More on the design: time < 24 hr, dose 1 mg/kg, route intravenous. To be noted: in vivo.
A short description of data set [11]: Thermodynamic solubility of the compound in sodium phosphate buffer at pH 7.4 after 24 hrs by nitrogen detection method. In kind it is physicochemical. To be noted: read-out: Therm_solubility.
The nature of the next data set: in vivo. To be noted: Wistar Han, rat, urine, iv, 1 mg/kg.
A short description of data set [12]: (§2) Oral bioavailability in Wistar Han rat at 3 mg/kg via gavage measured up to 24 hrs post dose by LC-MS/MS analysis. Format: ADME, organism-based. To be noted: Wistar Han, in vivo.
Data set [13] can be described thus: (§3) AUC (0 to 24 hrs) in Wistar Han rat at 3 mg/kg via oral gavage measured up to 24 hrs post dose by LC-MS/MS analysis. In kind it is ADME, organism-based. Also on record: dose 3 mg/kg, time < 24 hr, route oral. To be noted: Wistar Han, in vivo.
The nature of data set [14]: Tmax in Wistar Han rat at 3 mg/kg via oral gavage by LC-MS/MS analysis. Format: ADME, organism-based. As to conditions: in vivo.
Data set [15] can be described thus: Cmax in cynomolgus monkey at 3 mg/kg via oral gavage measured up to 24 hrs post dose by LC-MS/MS analysis. In kind it is ADME, organism-based, Macaca fascicularis. More on the design: dose 3 mg/kg, route oral. To be noted: in vivo.
Data set [16] in a line: Cmax in Wistar Han rat at 3 mg/kg via oral gavage measured up to 24 hrs post dose by LC-MS/MS analysis. To be noted: in vivo. In kind it is ADME, organism-based. More on the design: dose 3 mg/kg, route oral.
The subject of data set [17] is Rattus norvegicus. The description is as §1. In kind it is ADME, organism-based. Also on record: time < 24 hr, dose 1 mg/kg, route intravenous. To be noted: in vivo, 24 h.
The conditions of data set [18]: rat, in vivo, iv, 1 mg/kg, 24 h.
Data set [19] relates to Rattus norvegicus. Described as §2. In kind it is ADME, organism-based. To be noted: in vivo, 24 h.
Data set [20] concerns Rattus norvegicus. The data set is described as §3. Format: ADME, organism-based. More on the design: dose 3 mg/kg, time < 24 hr, route oral. To be noted: in vivo, 24 h.

Data on twelve compounds can be found in ChEMBL document CHEMBL4020835, “Optimization of Metabolic and Renal Clearance in a Series of Indole Acid Direct Activators of 5'-Adenosine Monophosphate-Activated Protein Kinase (AMPK)” (J Med Chem, 2018).

Values after ≈ are worked out from the molar mass of the structure shown. A value given as a limit tells only on which side of the number the result lay.

As to `N#Cc1cc2[nH]cc(C(=O)O)c2cc1-c1ccc(C2(O)CCC2)cc1`, in the data set “physchem [1]”, the logD came out at 1.1. Besides, the pKa in the data set “physchem [2]” was 4.6.

Regarding `O=C(O)c1c[nH]c2cc(F)c(-c3ccc([C@@H]4CCCCO4)cc3)c(F)c12`, the AUC(0-t) at 24 h in data set [3] stood at 91600 ng·h/mL; in data set [6], 16400 ng·h/mL; in data set [10], 35900 ng·h/mL; in data set [13] it was 12800 ng·h/mL. In addition, the Tmax stood at 2 h in data set [4] and 2.7 h in [14]. Also, the figures for the bioavailability in data set [5] and in data set [12] were 85% and 26%, respectively. Besides, the values for the dose excreted at 24 h (in data set [7]; in the data set “in vivo”) were 2.2% and 1.6%, respectively. For the same compound, the logD in “physchem [1]” is 1.9. In addition, the Vd was 0.31 L/kg in [8] and 0.3 L/kg in data set [9]. Further, in data set [11], the solubility thermodynamic at 24 h is 14 µM (≈ 5 µg/mL). In the data set “physchem [2]”, this compound returned a pKa of 5. In addition, the Cmax is 8180 ng/mL in data set [15] and 1890 ng/mL in data set [16].

In turn, `O=C(O)c1c[nH]c2cc(F)c(-c3ccc([C@H]4CCCCO4)cc3)c(F)c12` yielded a logD in “physchem [1]” of 2.

In the data set “physchem [1]”, `O=C(O)c1c[nH]c2cc(Cl)c(-c3ccc(OCCO)cc3)cc12` gave a pH-dependent lipophilicity (logD) of 1.1. This compound also gave a dose excreted at 24 h in the data set “in vivo” of 10%. For the same compound, the pKa in the data set “physchem [2]” came out at 4.8.

In the data set “physchem [1]”, `O=C(O)c1c[nH]c2cc(F)c(-c3ccc(C4(O)CCC4)cc3)c(F)c12` had a logD of 1.3. The compound also displayed a dose excreted at 24 h in “in vivo” of 10.7%. The same compound showed a pKa in “physchem [2]” of 4.9.

For `O=C(O)c1c[nH]c2cc(Cl)c(-c3ccc(OCCCN4CCOCC4)cc3)cc12`, the logD in “physchem [1]” stood at 1.8. In the data set “in vivo”, this compound had a dose excreted at 24 h of 12%. The compound further showed a pKa in “physchem [2]” of 5.4 to 7.1.

In the case of `CN(C)c1ccc(-c2cc3c(C(=O)O)c[nH]c3cc2Cl)cn1`, the logD in “physchem [1]” was 1.7. Besides, in “physchem [2]”, the pKa was in the range of 4.7 to 6.2.

Regarding `COc1ccc(-c2cc3c(C(=O)O)c[nH]c3cc2Cl)cn1`, in “physchem [1]”, the logD worked out at 1.8. The compound also showed a pKa in “physchem [2]” of 2.4 to 4.9.

`COc1ccc(-c2cc3c(C(=O)O)c[nH]c3cc2Cl)c(OC)n1` came in with a pH-dependent lipophilicity (logD) in “physchem [1]” of 2.1. The compound also had a pKa in the data set “physchem [2]” of 4.8.

In the data set “physchem [1]”, `COCCOc1ccc(-c2cc3c(C(=O)O)c[nH]c3cc2Cl)cc1` gave a logD of 1.8. This compound also returned a pKa in the data set “physchem [2]” of 5.

In the data set “physchem [1]”, `O=C(O)c1c[nH]c2cc(Cl)c(-c3ccc(C4CCCCO4)cc3)cc12` (stereo unspecified) came in with a logD of 2.8. The pKa in “physchem [2]” was 4.9.

As to `COc1nc(N(C)C)ccc1-c1cc2c(C(=O)O)c[nH]c2cc1Cl`, the AUC(0-t) at 24 h was 31200 ng·h/mL in [3] and 15500 ng·h/mL in data set [10]. Moreover, the Tmax in data set [4] was 1.5 h; in data set [14], 5.5 h. Further, the bioavailability in [5] is 67%. For the same compound, the AUC was found to be 254000 ng·h/mL in the data set with Rattus norvegicus [17] and 160000 ng·h/mL with Rattus norvegicus [20]. The dose excreted at 24 h in data set [7] is less than 1%. Also, the logD in the data set “physchem [1]” stood at 2.3. In addition, the Vd in data set [8] is 0.1 L/kg; in data set [9] it was 0.46 L/kg. In data set [11], the solubility thermodynamic at 24 h worked out at 120 µM (≈ 41.5 µg/mL). The compound also had a pKa in “physchem [2]” of 2.6 to 4.9. Moreover, the Drug recovery in data set [18] came to 1 ng/mL. Also, the F with Rattus norvegicus [19] is reported as 52%. The Cmax in [15] is 2540 ng/mL; in data set [16], 10200 ng/mL.

As a reminder, the logD is the decadic logarithm of the distribution of all forms, ionised or not, between an organic phase and buffer at a given pH. Usually pKa stands for the pH at which an ionisable group is half protonated. The AUC(0-t) is exposure summed from dosing to a finite time, without extrapolation to infinity. What is called Tmax is the time from dosing to the highest level. A word on the bioavailability: it is the share of a dose that reaches the circulation, judged against a reference dose that is usually intravenous. What is called Cmax is the peak of the concentration-time curve. The term AUC denotes the area under the concentration-time curve, a measure of exposure.
